Results taken from patent publication US20240228489A1, “POSITIVE ALLOSTERIC MODULATORS OF THE MUSCARINIC ACETYLCHOLINE RECEPTOR M1” (Vanderbilt University, priority 2021, published 2024).

Experiments:
human mAChR M1 [1] = biological target: T1, human mAChR M1 (Homo sapiens, UniProt P11229); assay: mAChR M1 cell-based functional assay (calcium mobilization), agonist mode: compound alone, Emax relative to acetylcholine maximum; conditions: for Agonist Activity Human M1 EC50 / EC50: human mAChR M1; for Emax: relative to the maximum for acetylcholine
T1 sequence (P11229 1-460): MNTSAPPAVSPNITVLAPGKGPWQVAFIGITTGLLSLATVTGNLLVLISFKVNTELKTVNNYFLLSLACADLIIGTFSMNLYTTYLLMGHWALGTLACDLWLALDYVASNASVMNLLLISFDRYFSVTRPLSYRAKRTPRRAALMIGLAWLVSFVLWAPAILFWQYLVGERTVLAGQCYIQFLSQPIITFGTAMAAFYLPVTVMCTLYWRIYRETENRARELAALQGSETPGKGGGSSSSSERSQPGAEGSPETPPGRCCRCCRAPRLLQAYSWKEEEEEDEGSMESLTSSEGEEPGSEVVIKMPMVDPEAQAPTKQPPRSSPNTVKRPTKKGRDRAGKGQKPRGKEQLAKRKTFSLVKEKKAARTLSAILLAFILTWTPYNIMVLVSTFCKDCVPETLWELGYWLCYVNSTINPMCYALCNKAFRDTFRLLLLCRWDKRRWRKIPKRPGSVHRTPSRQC
Outline: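 Agonist activity is the concentration-dependent rise in intracellular calcium (Fluo-4, 1 Hz read) after compound addition, measured before any acetylcholine was added, in stable hM1 CHO-K1 cells. Curves were 11-point, 1:3 dilutions fitted by four-parameter logistic. Emax is given as a fraction of maximal acetylcholine response.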

human mAChR M1 [2] = biological target: T1, human mAChR M1; assay: mAChR M1 cell-based functional assay (calcium mobilization), PAM mode: increase in the EC20 acetylcholine response
Outline: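 PAM readout is the concentration-dependent rise in the EC20 acetylcholine calcium signal, fitted to a four-parameter logistic (EC50, Emax). Compounds were preincubated from 4 s before ACh at 144 s (EC20) and 230 s (EC80). hM1-expressing CHO-K1 cells loaded with Fluo-4, FDSS ratio read.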

| Compound | Agonist Activity Human M1 EC50 (human mAChR M1 [1]) | Emax (human mAChR M1 [1]) | EC50 (human mAChR M1 [2]) | Emax (human mAChR M1 [2]) | EC50 (human mAChR M1 [1]) |
| --- | --- | --- | --- | --- | --- |
| [2H]C1([2H])c2ncccc2C(=O)N1Cc1ccc(-c2cccc3ccnn23)cc1 [Compound 241, 6-(4-(pyrazolo[1,5-a]pyridin-7-yl)benzyl)-6,7-dihydro-5H-pyrrolo[3,4-b]pyridin-5-one-7,7-d2] | Inactive | 3% | > 10 µM | 41% |  |
| [2H]C1([2H])c2ncccc2C(=O)N1Cc1ccc(-c2ccc3nn(C)cc3c2C)cc1F [Compound 242, 6-(4-(2,4-dimethyl-2H-indazol-5-yl)-2-fluorobenzyl)-6,7-dihydro-5H-pyrrolo[3,4-b]pyridin-5-one-7,7-d2] | Inactive | 3% | > 10 µM | 43% |  |
| [2H]C1([2H])c2ncccc2C(=O)N1Cc1c(F)cc(-c2cccc3c2cnn3C(F)F)cc1F [Compound 243, 6-(4-(1-(difluoromethyl)-1H-indazol-4-yl)-2,6-difluorobenzyl)-6,7-dihydro-5H-pyrrolo[3,4-b]pyridin-5-one-7,7-d2] | Inactive | 5% | > 10 µM | 34% |  |
| [2H]C1([2H])c2ncccc2C(=O)N1Cc1c(F)cc(-c2ccc(C(F)(F)F)c3c2cnn3C([2H])([2H])[2H])cc1F [Compound 244, 6-(2,6-difluoro-4-(1-(methyl-d3)-7-(trifluoromethyl)-1H-indazol-4-yl)benzyl)-6,7-dihydro-5H-pyrrolo[3,4-b]pyridin-5-one-7,7-d2] | Inactive | 2% | > 10 µM | 34% |  |
| [2H]C1([2H])c2ncccc2C(=O)N1Cc1c(F)cc(-c2cc(F)c(Cl)c3nn(C)cc23)cc1F [Compound 245, 6-(4-(7-chloro-6-fluoro-2-methyl-2H-indazol-4-yl)-2,6-difluorobenzyl)-6,7-dihydro-5H-pyrrolo[3,4-b]pyridin-5-one-7,7-d2] | Inactive | 1% | > 10 µM | 47% |  |
| [2H]C1([2H])c2ncccc2C(=O)N1Cc1c(F)cc(-c2cc(Cl)cc3c2cnn3C([2H])([2H])[2H])cc1F [Compound 246, 6-(4-(6-chloro-1-(methyl-d3)-1H-indazol-4-yl)-2,6-difluorobenzyl)-6,7-dihydro-5H-pyrrolo[3,4-b]pyridin-5-one-7,7-d2] | Inactive | 2% | > 10 µM | 25% |  |
| [2H]C1([2H])c2ncccc2C(=O)N1Cc1c(F)cc(-c2cc(F)cc3c2cnn3C([2H])([2H])[2H])cc1F [Compound 247, 6-(2,6-difluoro-4-(6-fluoro-1-(methyl-d3)-1H-indazol-4-yl)benzyl)-6,7-dihydro-5H-pyrrolo[3,4-b]pyridin-5-one-7,7-d2] | Inactive | 2% | > 10 µM | 29% |  |
| [2H]C1([2H])c2ncccc2C(=O)N1Cc1c(F)cc(-c2cc(F)c(Cl)c3nn(C([2H])([2H])[2H])cc23)cc1F [Compound 248, 6-(4-(7-chloro-6-fluoro-2-(methyl-d3)-2H-indazol-4-yl)-2,6-difluorobenzyl)-6,7-dihydro-5H-pyrrolo[3,4-b]pyridin-5-one-7,7-d2] | Inactive | 2% | > 10 µM | 34% |  |
| [2H]C1([2H])c2ncccc2C(=O)N1Cc1c(F)cc(-c2cc(F)c(Cl)c3c2cnn3C([2H])([2H])[2H])cc1F [Compound 249, 6-(4-(7-chloro-6-fluoro-1-(methyl-d3)-1H-indazol-4-yl)-2,6-difluorobenzyl)-6,7-dihydro-5H-pyrrolo[3,4-b]pyridin-5-one-7,7-d2] | Inactive | 14% | > 10 µM | 20% |  |
| [2H]C1([2H])c2ncccc2C(=O)N1Cc1c(F)cc(-c2ccc(OC(C)C)c3c2cnn3C([2H])([2H])[2H])cc1F [Compound 250, 6-(2,6-difluoro-4-(7-isopropoxy-1-(methyl-d3)-1H-indazol-4-yl)benzyl)-6,7-dihydro-5H-pyrrolo[3,4-b]pyridin-5-one-7,7-d2] | Inactive | 3% | > 10 µM | 51% |  |
| [2H]C1([2H])c2ncccc2C(=O)N1Cc1c(F)cc(-c2ccc(OC(F)(F)F)c3c2cnn3C([2H])([2H])[2H])cc1F [Compound 251, 6-(2,6-difluoro-4-(1-(methyl-d3)-7-(trifluoromethoxy)-1H-indazol-4-yl)benzyl)-6,7-dihydro-5H-pyrrolo[3,4-b]pyridin-5-one-7,7-d2] | Inactive | 2% | > 10 µM | 12% |  |
| [2H]C1([2H])c2ncccc2C(=O)N1Cc1c(F)cc(-c2cc(F)c(F)c3c2cnn3C([2H])([2H])[2H])cc1F [Compound 252, 6-(4-(6,7-difluoro-1-(methyl-d3)-1H-indazol-4-yl)-2,6-difluorobenzyl)-6,7-dihydro-5H-pyrrolo[3,4-b]pyridin-5-one-7,7-d2] | Inactive | 2% | > 10 µM | 15% |  |
| [2H]C1([2H])c2ncccc2C(=O)N1Cc1c(F)cc(-c2cnc(OC)c3c2cnn3C)cc1F [Compound 253, 6-(2,6-difluoro-4-(7-methoxy-1-methyl-1H-pyrazolo[3,4-c]pyridin-4-yl)benzyl)-6,7-dihydro-5H-pyrrolo[3,4-b]pyridin-5-one-7,7-d2] | Inactive | 2% | > 10 µM | 27% |  |

Continued, values first:

| Agonist Activity Human M1 EC50 (human mAChR M1 [1]) | Emax (human mAChR M1 [1]) | EC50 (human mAChR M1 [2]) | Emax (human mAChR M1 [2]) | EC50 (human mAChR M1 [1]) | Compound |
| --- | --- | --- | --- | --- | --- |
| Inactive | 1% | ≥ 10 µM | 43% |  | [2H]C1([2H])c2ncccc2C(=O)N1Cc1ccc(-c2cccc3nn(C)cc23)cc1C(C)C [Compound 233, 6-(2-isopropyl-4-(2-methyl-2H-indazol-4-yl)benzyl)-6,7-dihydro-5H-pyrrolo[3,4-b]pyridin-5-one-7,7-d2] |
| Inactive | 1% | ≥ 10 µM | 42% |  | [2H]C1([2H])c2ncccc2C(=O)N1Cc1ccc(-c2cccc3nn(C([2H])([2H])[2H])cc23)cc1C(C)C [Compound 234, 6-(2-isopropyl-4-(2-(methyl-d3)-2H-indazol-4-yl)benzyl)-6,7-dihydro-5H-pyrrolo[3,4-b]pyridin-5-one-7,7-d2] |
|  | 23% | 0.744 µM | 73% | > 10 µM | [2H]C1([2H])c2ncccc2C(=O)N1Cc1c(F)cc(-c2cccn3nc(C)cc23)cc1F [Compound 235, 6-(2,6-Difluoro-4-(2-methylpyrazolo[1,5-a]pyridin-4-yl)benzyl)-6,7-dihydro-5H-pyrrolo[3,4-b]pyridin-5-one-7,7-d2] |
|  | 22% | 0.745 µM | 76% | 9.56 µM | [2H]C([2H])([2H])c1cc2c(-c3cc(F)c(CN4C(=O)c5cccnc5C4([2H])[2H])c(F)c3)cccn2n1 [Compound 236, 6-(2,6-Difluoro-4-(2-(methyl-d3)pyrazolo[1,5-a]pyridin-4-yl)benzyl)-6,7-dihydro-5H-pyrrolo[3,4-b]pyridin-5-one-7,7-d2] |
| Inactive | 2% | > 10 µM | 47% |  | [2H]C1([2H])c2ncccc2C(=O)N1Cc1ccc(-c2ccc3c(cnn3C)c2)cc1 [Compound 237, 6-(4-(1-methyl-1H-indazol-5-yl)benzyl)-6,7-dihydro-5H-pyrrolo[3,4-b]pyridin-5-one-7,7-d2] |
| Inactive | 2% | > 10 µM | 39% |  | [2H]C1([2H])c2ncccc2C(=O)N1Cc1ccc(-c2ccc3nn(C)cc3c2C)cc1 [Compound 238, 6-(4-(2,4-dimethyl-2H-indazol-5-yl)benzyl)-6,7-dihydro-5H-pyrrolo[3,4-b]pyridin-5-one-7,7-d2] |
| Inactive | 3% | > 10 µM | 44% |  | [2H]C1([2H])c2ncccc2C(=O)N1Cc1ccc(-c2cccc3nncn23)cc1 [Compound 239, 6-(4-([1,2,4]triazolo[4,3-a]pyridin-5-yl)benzyl)-6,7-dihydro-5H-pyrrolo[3,4-b]pyridin-5-one-7,7-d2] |
| Inactive | 3% | > 10 µM | 27% |  | [2H]c1nnc2cccc(-c3ccc(CN4C(=O)c5cccnc5C4([2H])[2H])cc3)n12 [Compound 240, 6-(4-([1,2,4]triazolo[4,3-a]pyridin-5-yl-3-d)benzyl)-6,7-dihydro-5H-pyrrolo[3,4-b]pyridin-5-one-7,7-d2] |
